Where two headings read alike, the source gives them in different places.
Target: Nanoluciferase-BRD9 fusion protein (Homo sapiens (Human), UniProt Q9H8M2)
Assay: SYO1 BRD9 NanoLuc degradation assay
Format: cell-based
Conditions: SYO-1 cells expressing 3×FLAG-NLuc-BRD9, 6 hours, read-out: SYO1 BRD9-NanoLuc degradation IC50
Method: Procedure: A stable SYO-1 cell line expressing 3×FLAG-NLuc-BRD9 was generated. On day 0 cells were seeded in 30 μL media into each well of 384-well cell culture plates. The seeding density was 8000 cells/well. […] Subsequently plates were incubated for 6 hours in a standard tissue culture incubator and equilibrated at room temperature for 15 minutes. Nanoluciferase activity was measured by adding 15 μL of freshly prepared Nano-Glo Luciferase Assay Reagent (Promega N1130), shaking the plates for 10 minutes and reading the bioluminescence using an EnVision reader.
DMSO treated cells are employed as High Control (HC) and 1 μM of a known BRD9 degrader standard treated cells are employed as Low Control (LC).

Chain of Nanoluciferase-BRD9 fusion protein (Q9H8M2 whole entry, the tested form may be a part): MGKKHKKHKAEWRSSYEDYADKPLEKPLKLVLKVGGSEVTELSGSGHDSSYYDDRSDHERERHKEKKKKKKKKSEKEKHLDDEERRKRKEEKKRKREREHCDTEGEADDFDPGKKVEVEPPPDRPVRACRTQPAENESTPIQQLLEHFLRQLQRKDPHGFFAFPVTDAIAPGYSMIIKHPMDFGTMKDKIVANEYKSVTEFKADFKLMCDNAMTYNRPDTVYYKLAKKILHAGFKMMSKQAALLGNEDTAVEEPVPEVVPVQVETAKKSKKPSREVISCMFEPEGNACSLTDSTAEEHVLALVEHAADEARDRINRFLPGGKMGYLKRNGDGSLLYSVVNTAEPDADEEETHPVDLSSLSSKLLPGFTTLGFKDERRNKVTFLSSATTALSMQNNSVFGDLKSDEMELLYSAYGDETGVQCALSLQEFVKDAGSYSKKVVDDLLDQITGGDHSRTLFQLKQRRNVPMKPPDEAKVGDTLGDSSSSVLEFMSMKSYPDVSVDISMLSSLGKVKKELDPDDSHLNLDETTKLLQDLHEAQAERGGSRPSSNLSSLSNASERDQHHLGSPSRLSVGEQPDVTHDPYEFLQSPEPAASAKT

Row | Compound | DC50 (Table 5B) [nM] | also measured
1 | COc1cc(-c2cn(C)c(=O)c3cnccc23)cc(OC)c1CN(C)CC(=O)NCCCCOc1ccc(-c2ccc3c(c2)C(=O)C(C2CCC(=O)NC2=O)C3=O)cc1 (centres unmarked) [DD7] | < 10 | –
2 | COc1cc(-c2cn(C)c(=O)c3cnccc23)cc(OC)c1CN1CC(CC(=O)N2CC3(CCN(c4ccc5c(c4)C(=O)N(C4CCC(=O)NC4=O)C5=O)C3)C2)C1 (centres unmarked) [Compound D77] | – | DC50 (Table 5A): 100 to 1000 nM
3 | COc1cc(-c2cn(C)c(=O)c3cnccc23)cc(OC)c1CN1CC(C(=O)N(C)Cc2cccc3c2C(=O)N(C2CCC(=O)NC2=O)C3=O)C1 (centres unmarked) [Compound D29, 1-(2,6-dimethoxy-4-(2-methyl-1-oxo-1,2-dihydro-2,7-naphthyridin-4-yl)benzyl)-N-((2-(2,6-dioxopiperidin-3-yl)-1,3-dioxoisoindolin-4-yl)methyl)-N-methylazetidine-3-carboxamide] | – | DC50 (Table 5A): 10 to 100 nM
4 | COc1cc(-c2cn(C)c(=O)c3cnccc23)cc(OC)c1CN1CCN(C(=O)CCC#Cc2ccc3c(c2)C(=O)N(C2CCC(=O)NC2=O)C3=O)CC1 (centres unmarked) [Compound D199] | < 10 | –
5 | COc1cc(-c2cn(C)c(=O)c3cnccc23)cc(OC)c1CN1CC(CC(=O)N2CC3(CCC(Oc4ccc5c(c4)C(=O)N(C4CCC(=O)NC4=O)C5=O)C3)C2)C1 (centres unmarked) [Compound D79] | – | DC50 (Table 5A): 100 to 1000 nM
6 | COc1cc(-c2cn(C)c(=O)c3cnccc23)cc(OC)c1CN1CC(S(=O)(=O)NCCCCNc2ccc3c(c2)C(=O)N(C2CCC(=O)NC2=O)C3=O)C1 (centres unmarked) [Compound D22, 1-[[2,6-dimethoxy-4-(2-methyl-1-oxo-1,2-dihydro-2,7-naphthyridin-4-yl)phenyl]methyl]-N-(4-[[2-(2,6-dioxopiperidin-3-yl)-1,3-dioxo-2,3-dihydro-1H-isoindol-5-yl]amino]butyl) azetidine-3-sulfonamide formic acid] | – | DC50 (Table 5A): 10 to 100 nM
7 | COc1cc(-c2cn(C)c(=O)c3cnccc23)cc(OC)c1CN1CC(CC(=O)N2CCC3(CCN(c4ccc5c(c4)C(=O)N(C4CCC(=O)NC4=O)C5=O)C3)C2)C1 (centres unmarked) [Compound D192] | 100 to 1000 | –
8 | COc1cc(-c2cn(C)c(=O)c3[nH]cc(C)c23)cc(OC)c1CN1CCC2(CC1)CN(c1ccc3c(c1)C(=O)N(C1CCC(=O)NC1=O)C3=O)C2 (centres unmarked) [Compound D418] | – | DC50 (Table 5C): < 10 nM
9 | COc1cc(-c2cn(C)c(=O)c3cnccc23)cc(OC)c1CN(C)CCOCCn1cc(COc2ccc3c(c2)C(=O)N(C2CCC(=O)NC2=O)C3=O)nn1 (centres unmarked) [Compound D288] | < 10 | –
10 | COc1cc(-c2cn(C)c(=O)c3cnccc23)cc(OC)c1CN1CCC2(C1)CN(CCCC#Cc1ccc3c(c1)C(=O)N(C1CCC(=O)NC1=O)C3=O)C2 (centres unmarked) [Compound D238] | < 10 | –
11 | COc1cc(-c2cn(C)c(=O)c3cnccc23)cc(OC)c1CN(C)CCCCN1CC2(CCC(Oc3ccc4c(c3)C(=O)N(C3CCC(=O)NC3=O)C4=O)C2)C1 (centres unmarked) [Compound D259] | < 10 | –
12 | COc1cc(-c2cn(C)c(=O)c3cnccc23)cc(OC)c1CN1CCC2(CC1)CN(CCCCOc1ccc3c(c1)C(=O)N(C1CCC(=O)NC1=O)C3=O)CCO2 (centres unmarked) [Compound D50, 5-(4-(9-(2,6-dimethoxy-4-(2-methyl-1-oxo-1,2-dihydro-2,7-naphthyridin-4-yl)benzyl)-1-oxa-4,9-diazaspiro[5.5]undecan-4-yl)butoxy)-2-(2,6-dioxopiperidin-3-yl)isoindoline-1,3-dione] | – | DC50 (Table 5A): < 10 nM
13 | COc1cc(-c2cn(C)c(=O)c3cnccc23)cc(OC)c1CN1CCC2(CCC(C(=O)CCC#Cc3ccc4c(c3)C(=O)N(C3CCC(=O)NC3=O)C4=O)C2)CC1 (centres unmarked) [Compound D220] | < 10 | –
14 | COc1cc(-c2cn(C)c(=O)c3cnccc23)cc(OC)c1CN(C)CCCCN1CCC2C1CN2c1ccc2c(c1)C(=O)N(C1CCC(=O)NC1=O)C2=O (centres unmarked) [Compound D227] | < 10 | –
15 | COc1cc(-c2cc(C)c(=O)n(C)c2)cc(OC)c1CN1CC(C#Cc2ccc3c(c2)C(=O)N(C2CCC(=O)NC2=O)C3=O)C1 (centres unmarked) [Compound D335] | < 10 | –
16 | COc1cc(-c2cn(C)c(=O)c3cnccc23)cc(OC)c1CN(C)CCOCCn1cc(COC2CN(c3ccc4c(c3)C(=O)N(C3CCC(=O)NC3=O)C4=O)C2)nn1 (centres unmarked) [Compound D295] | 100 to 1000 | –
17 | COc1cc(-c2cc(C)c(=O)n(C)c2C)cc(OC)c1CN1CCC2(C1)CN(c1ccc3c(c1)C(=O)N(C1CCC(=O)NC1=O)C3)C2 (centres unmarked) [Compound D396] | – | DC50 (Table 5C): < 10 nM
18 | COc1cc(-c2cn(C)c(=O)c3cn(C)nc23)cc(OC)c1CN1CCC2(CC1)CN(c1ccc3c(c1)CN(C1CCC(=O)NC1=O)C3=O)C2 (centres unmarked) [Compound D412] | – | DC50 (Table 5C): < 10 nM
19 | COc1cc(-c2cn(C)c(=O)c3cnccc23)cc(OC)c1CN(C)CCCCCCCCNc1cccc2nc(C)n(C3CCC(=O)NC3=O)c(=O)c12 (centres unmarked) [DD5] | 10 to 100 | –
20 | COc1cc(-c2cn(C)c(=O)c3cnccc23)cc(OC)c1CN1CCC(n2cc(CCOc3ccc4c(c3)C(=O)N(C3CCC(=O)NC3=O)C4=O)nn2)CC1 (centres unmarked) [Compound D279] | < 10 | –
21 | COc1cc(-c2cc(C)cc3ccccc23)cc(OC)c1CN1CCC(CN2CCC3(CC2)CC(Oc2ccc4c(c2)C(=O)N(C2CCC(=O)NC2=O)C4=O)C3)CC1 (centres unmarked) [DD11] | – | DC50 (Table 5C): > 1000 nM
22 | COc1cc(-c2cn(C)c(=O)c3cccn23)cc(OC)c1CN1CCC2(CC1)CN(c1ccc3c(c1)C(=O)N(C1CCC(=O)NC1=O)C3)C2 (centres unmarked) [Compound D431] | – | DC50 (Table 5C): < 10 nM

Row | Compound | DC50 (Table 5B) [nM] | also measured
23 | COc1cc(-c2cn(C)c(=O)c3cnn(C)c23)cc(OC)c1CN1CCC2(CC1)CN(c1ccc3c(c1)C(=O)N(C1CCC(=O)NC1=O)C3)C2 (centres unmarked) [Compound D414] | – | DC50 (Table 5C): < 10 nM
24 | COc1cc(-c2cn(C)c(=O)c3cnccc23)cc(OC)c1CN1CCC(CN2CCC3(CC2)CC(Oc2ccc4c(c2)C(=O)N(C2CCC(=O)NC2=O)C4=O)C3)CC1 (centres unmarked) [Compound D304] | < 10 | –
25 | COc1cc(-c2cn(C)c(=O)c3cnccc23)cc(OC)c1CN(C)CCCCN1CCC2(CC1)CCN(c1ccc3c(c1)C(=O)N(C1CCC(=O)NC1=O)C3=O)C2 (centres unmarked) [Compound D224] | < 10 | –
26 | COc1cc(-c2cc(C)c(=O)n(C)c2)cc(OC)c1CN1CC(Cc2ccc3c(c2)C(=O)N(C2CCC(=O)NC2=O)C3)C1 (centres unmarked) [Compound D449] | – | DC50 (Table 5C): 10 to 100 nM
27 | COc1cc(-c2cn(C)c(=O)c3cnccc23)cc(OC)c1CN1CC2(C1)CN(C(=O)CC#Cc1ccc3c(c1)C(=O)N(C1CCC(=O)NC1=O)C3=O)C2 (centres unmarked) [Compound D317] | 10 to 100 | –
28 | COc1cc(-c2cn(C)c(=O)c3cnccc23)cc(OC)c1Cn1cc(COC2CCN(c3ccc4c(c3)C(=O)N(C3CCC(=O)NC3=O)C4=O)CC2)nn1 (centres unmarked) [Compound D272] | < 10 | –
29 | COc1cc(-c2cn(C)c(=O)c3cnccc23)cc(OC)c1CN(C)CCCCN1CCC2(CC1)CC(Oc1ccc3c(c1)C(=O)N(C1CCC(=O)NC1=O)C3=O)C2 (centres unmarked) [Compound D228] | < 10 | –
30 | COc1cc(-c2cn(C)c(=O)c3cnccc23)cc(OC)c1CN1CCC(n2cc([C@H](C)Oc3ccc4c(c3)C(=O)N(C3CCC(=O)NC3=O)C4=O)nn2)CC1 (some centres unmarked) [Compound D320] | < 10 | –
31 | COc1cc(-c2cn(C)c(=O)c3cnccc23)cc(OC)c1CN1CC(N2CCN(c3ccc4c(c3)C(=O)N(C3CCC(=O)NC3=O)C4=O)CC2)C1 (centres unmarked) [Compound D327] | < 10 | –
32 | COc1cc(-c2cn(C)c(=O)c3cnccc23)cc(OC)c1CN1CC(CC(=O)N2CCC3(CC2)CC(Oc2ccc4c(c2)C(=O)N(C2CCC(=O)NC2=O)C4=O)C3)C1 (centres unmarked) [Compound D184] | < 10 | –
33 | COc1cc(CN2CCC3(CC2)CN(c2ccc4c(c2)C(=O)N(C2CCC(=O)NC2=O)C4)C3)cc(-c2cn(C)c(=O)c3cnccc23)c1 (centres unmarked) [Compound D387] | – | DC50 (Table 5C): < 10 nM
34 | CCc1cc(-c2cn(C)c(=O)c3cnccc23)cc(OC)c1CN1CC(Oc2ccc3c(c2)C(=O)N(C2CCC(=O)NC2=O)C3=O)C1C (centres unmarked) [Compound D386] | – | DC50 (Table 5C): < 10 nM
35 | CNC(=O)NCc1cc(-c2cc(OC)c(CN3CC(CN4CCC5(CC4)CN(c4ccc6c(c4)C(=O)N(C4CCC(=O)NC4=O)C6=O)C5)C3)c(OC)c2)cn(C)c1=O (centres unmarked) [Compound D350] | 100 to 1000 | –
36 | CCc1cc(-c2cn(C)c(=O)c3cnccc23)cc(OC)c1CN1CC(Oc2ccc3c(c2)C(=O)N(C2CCC(=O)NC2=O)C3=O)C1 (centres unmarked) [Compound D385] | – | DC50 (Table 5C): < 10 nM
37 | COc1cc(-c2cn(C)c(=O)c3cnncc23)cc(OC)c1CN1CCC(CN2CCC3(CC2)CC(Oc2ccc4c(c2)C(=O)N(C2CCC(=O)NC2=O)C4)C3)CC1 (centres unmarked) [Compound D368] | < 10 | –
38 | COc1cc(-c2cn(C)c(=O)c3cnccc23)cc(OC)c1CN(C)CCCn1cc(COC2CN(c3ccc4c(c3)C(=O)N(C3CCC(=O)NC3=O)C4=O)C2)nn1 (centres unmarked) [Compound D286] | 10 to 100 | –
39 | COc1cc(-c2cn(C)c(=O)c3cnccc23)cc(OC)c1CN1CC(Oc2ccc3c(c2)CN(C2CCC(=O)N(COC(=O)[C@@H](N)C(C)C)C2=O)C3=O)C1 (some centres unmarked) [Compound D384] | – | DC50 (Table 5C): < 10 nM
40 | COc1cc(-c2cn(C)c(=O)c3[nH]c(C)cc23)cc(OC)c1CN1CCC2(CC1)CN(c1ccc3c(c1)C(=O)N(C1CCC(=O)NC1=O)C3)C2 (centres unmarked) [Compound D422] | – | DC50 (Table 5C): < 10 nM
41 | COc1cc(-c2cn(C)c(=O)c3cnccc23)cc(OC)c1Cn1cc(CN2CC(Oc3ccc4c(c3)C(=O)N(C3CCC(=O)NC3=O)C4=O)C2)nn1 (centres unmarked) [Compound D270] | 10 to 100 | –
42 | COc1cc(-c2cn(C)c(=O)c3cnccc23)cc(OC)c1CN1CC2(CCN(CC#Cc3ccc4c(c3)C(=O)N(C3CCC(=O)NC3=O)C4=O)CC2)C1 (centres unmarked) [Compound D307] | < 10 | –
43 | COc1cc(-c2cc(C)c(=O)n(C)c2)cc(OC)c1CN1CCC(CCN2CCN(c3ccc4c(c3)C(=O)N(C3CCC(=O)NC3=O)C4=O)CC2)CC1 (centres unmarked) [Compound D329] | < 10 | –
44 | COc1cc(-c2cn(C)c(=O)c3cnccc23)cc(OC)c1CN1CCC2C(C1)CN2CCCC#Cc1ccc2c(c1)C(=O)N(C1CCC(=O)NC1=O)C2=O (centres unmarked) [Compound D310] | < 10 | –

Source: US11414416B1, “Compounds and uses thereof” (Foghorn Therapeutics Inc., priority 2019, dated 2022)
